{"source": "patent US6169076A", "about": "“P-Boronophenylalanine complexes with fructose and related carbohydrates and polyols” (Glcosyn Pharmaceuticals, Inc., priority 1999, dated 2001)", "key": {"[1]": {"test": "Complex formation constants of p-BPA with carbohydrates and polyols, by integration of aryl protons in the 1H NMR spectrum (D2O, pH buffered at 7.4)", "assay_type": "physicochemical", "details": "for decrease in binding: C-3 hydroxyl unavailable; for log Keq (complex formation constant, disaccharides) / log Keq (complex formation constant, polyols) / log Keq (complex formation constant, monosaccharides): L-p-BPA, 1H NMR, D2O, pH buffered at 7.4; for decrease in the pKeq values of these complexes: C-6 hydroxyl eliminated from binding, relative to fructose; for difference in binding constants: maltulose, lactulose and fructose compared; for binding with l-p-BPA / change in the 1H NMR spectrum of l-p-BPA: in words", "text": "(§1) The ratio of free p-BPA to p-BPA:carbohydrate complex can be determined by integration of the aromatic protons resonances (p-BPA, 7.73 and 7.33 ppm; p-BPA-carbohydrate complex, 7.5 and 7.2 ppm) in the ^1 H NMR spectrum using D2 O buffered to physiological pH as the solvent. A minimum of five measurements for each carbohydrate at various concentrations and p-BPA:carbohydrate ratios were taken, and the equilibrium constant calculated (Table 1 and Table 2). Likewise, complex formation constants for p-BPA and some polyols have been calculated (Table 3).\n^a All values were determined for L-p-BPA by integration of aryl\nprotons in the ^j H NMR spectrum (D2 O, pH buffered at 7.4).\n^a All values were determined for L-p-BPA by intergration of aryl\nprotons in the ^l H NMR spectrum (D2 O, pH buffered at 7.4).\nThe strong correspondence between the NMR data obtained for the l-p-BPA-fructose complex at physiological pH and one of the complexes (e.g., as observed for p-tolylboronic acid with fructose at pD 11-12) was further investigated by a systematic study of the binding ability of fructose-containing disaccharides (Table 2). […] However, the presence of the added 4-O-glucosyl or galactosyl group had no positive effect on binding either.\nWhile the hydroxyl at C-3 for turanose is eliminated from binding due to the presence of the glucosyl moiety, the C-3 hydroxyl of leucrose is also unavailable for binding due to a likely significant contribution from the conformation that places the glucosyl unit in an equatorial position, resulting in a diaxial orientation between the anomeric C-2 hydroxyl and C-3 hydroxyl axial. Loss in binding ability for leucrose can also be attributed to the fructose unit being locked in the less favored pyranose ring form."}, "[2]": {"test": "Hydration of the freeze-dried solid with warm water and standing at room temperature", "assay_type": "physicochemical", "method": "^10 B enriched l-p-boronophenylalanine (0.520 g) and d-fructose (0.473 g) was suspended in distilled water (3 mL), and l-p-boronophenylalanine was dissolved by addition of 0.5 M NaOH (5.3 mL) with gentle heating. The pH of this solution is typically between 8.5 and 9.0. […] The solution is removed from the resin, and any l-p-boronophenylalanine that is suspended can be redissolved with gentle warming of the solution. The room temperature solution was then filtered through a 0.2μ filter and then freeze-dried to give sodium l-p-boronophenylalanine-d-fructose complex (0.934 g). […] M.p. 90-93° C."}, "[3]": {"details": "0.1 M solution; cited from earlier work"}, "[4]": {"details": "patients injected with p-BPA solution of this acidity; cited from earlier work"}, "murine melanoma model": {"test_system": "murine melanoma model", "details": "systemic administration; cited from earlier work"}, "[5]": {"details": "intravenous; solution from current methods; cited from earlier work"}, "[6]": {"details": "solution from current methods, roughly one equivalent of NaCl; cited from earlier work"}, "[7]": {"test": "State of p-BPA in solution at pH 7.4 with strongly complexing or excess carbohydrate/polyol", "assay_type": "physicochemical", "text": "as §1"}, "melanoma cells": {"test_system": "melanoma cells", "details": "in words; cited from earlier work"}, "[8]": {"details": "cited from earlier work"}}, "note": "Counter-ions that a name gives are not always drawn.", "data": [{"molecule": "OC[C@H]1O[C@H](O[C@@H]2COC(O)(CO)[C@@H](O)[C@@H]2O)[C@H](O)[C@@H](O)[C@@H]1O", "note": "(some centres unmarked) [Leucrose]", "values": [{"measurement": "decrease in binding", "setting": "[1]", "value": 1.5, "unit": "pKeq"}, {"measurement": "log Keq (complex formation constant, disaccharides)", "setting": "[1]", "value": 1.7}]}, {"molecule": "[NH3+][C@@H](Cc1ccc([B-]23OC[C@H]4O[C@@](CO)(O2)[C@@H](O3)[C@@H]4O)cc1)C(=O)O", "note": "[sodium l-p-boronophenylalanine-d-fructose complex]", "values": [{"measurement": "stability of the hydrated solution (remains dissolved)", "setting": "[2]; prolonged standing (i.e., 48 hrs) at room temperature", "value": "remains completely dissolved"}, {"measurement": "solubility", "setting": "[2]; warm water, 60° C.", "value": "~100", "unit": "mg/mL"}]}, {"molecule": "OC[C@H]1O[C@H](OC[C@H]2OC(O)(CO)[C@@H](O)[C@@H]2O)[C@H](O)[C@@H](O)[C@@H]1O", "note": "(some centres unmarked) [Palatinose]", "values": [{"measurement": "decrease in the pKeq values of these complexes", "setting": "[1]", "value": 0.5, "unit": "pKeq"}, {"measurement": "log Keq (complex formation constant, disaccharides)", "setting": "[1]", "value": 2.6}]}, {"molecule": "NC(Cc1ccc(B(O)O)cc1)C(=O)O", "note": "(centres unmarked) [hydrochloric acid salts of p-BPA]", "values": [{"measurement": "pH value of solution", "setting": "[3]", "value": "approximately 1.5"}, {"measurement": "pain on injection", "setting": "[4]", "value": "causes pain"}]}, {"molecule": "[NH3+]C(Cc1ccc([B-]23OC[C@H]4O[C@@](CO)(O2)[C@@H](O3)[C@@H]4O)cc1)C(=O)O", "note": "(some centres unmarked) [p-BPA-fructose complex]", "values": [{"measurement": "10B uptake", "setting": "murine melanoma model", "value": "increases the ^10 B uptake"}, {"measurement": "toxicity", "setting": "[5]", "value": "toxicity observed"}, {"measurement": "osmotic property of solution", "setting": "[6]", "value": "greatly exceeding its iso-osmotic point with blood"}]}, {"molecule": "Maltulose", "values": [{"measurement": "log Keq (complex formation constant, disaccharides)", "setting": "[1]", "value": 3.1}, {"measurement": "difference in binding constants", "setting": "[1]", "value": "lack of appreciable difference in binding constants"}]}, {"molecule": "OC[C@@H](O)[C@@H](O)[C@H](O)[C@H](O)CO", "note": "[Mannitol]", "values": [{"measurement": "log Keq (complex formation constant, polyols)", "setting": "[1]", "value": 2.7}]}, {"molecule": "OC[C@@H](O)[C@@H](O)[C@H](O)[C@@H](O)CO", "note": "[Sorbitol]", "values": [{"measurement": "log Keq (complex formation constant, polyols)", "setting": "[1]", "value": 3.2}]}, {"molecule": "OC[C@H]1O[C@@](CO)(O[C@H]2O[C@H](CO)[C@@H](O)[C@H](O)[C@H]2O)[C@@H](O)[C@@H]1O", "note": "[sucrose]", "values": [{"measurement": "binding with l-p-BPA", "setting": "[1]", "value": "complete lack of binding"}, {"measurement": "change in the 1H NMR spectrum of l-p-BPA", "setting": "[1]", "value": "no change"}]}, {"molecule": "OC[C@@H](O)[C@@H](O)[C@@H](O)CO", "note": "[Adonitol]", "values": [{"measurement": "log Keq (complex formation constant, polyols)", "setting": "[1]", "value": 1.7}]}, {"molecule": "CO[C@@H]1O[C@H](CO)[C@H](O)[C@H](O)[C@H]1O", "note": "[methyl-β-galactopyranoside]", "values": [{"measurement": "binding with l-p-BPA", "setting": "[1]", "value": "complete lack of binding"}, {"measurement": "change in the 1H NMR spectrum of l-p-BPA", "setting": "[1]", "value": "no change"}]}, {"molecule": "O=C[C@H](O)[C@@H](O)[C@@H](O)[C@H](O)CO", "note": "[Galactose]", "values": [{"measurement": "log Keq (complex formation constant, monosaccharides)", "setting": "[1]", "value": 1.6}]}, {"molecule": "O=C(CO)[C@@H](O[C@H]1O[C@H](CO)[C@@H](O)[C@H](O)[C@H]1O)[C@H](O)[C@H](O)CO", "note": "[Turanose]", "values": [{"measurement": "decrease in binding", "setting": "[1]", "value": 1.5, "unit": "pKeq"}, {"measurement": "log Keq (complex formation constant, disaccharides)", "setting": "[1]", "value": 1.6}]}, {"molecule": "OC[C@H]1O[C@@H](O[C@@H]2[C@@H](CO)OC(O)(CO)[C@H]2O)[C@H](O)[C@@H](O)[C@H]1O", "note": "(mixture of isomers) [Lactulose]", "values": [{"measurement": "log Keq (complex formation constant, disaccharides)", "setting": "[1]", "value": 3.0}, {"measurement": "difference in binding constants", "setting": "[1]", "value": "lack of appreciable difference in binding constants"}]}, {"molecule": "O=C[C@H](O)[C@@H](O)[C@H](O)[C@H](O)CO", "note": "[Glucose]", "values": [{"measurement": "log Keq (complex formation constant, monosaccharides)", "setting": "[1]", "value": 1.4}]}, {"molecule": "O=C[C@H](O)[C@H](O)[C@H](O)CO", "note": "[Ribose]", "values": [{"measurement": "log Keq (complex formation constant, monosaccharides)", "setting": "[1]", "value": 1.8}]}, {"molecule": "CO[C@H]1O[C@H](CO)[C@@H](O)[C@H](O)[C@H]1O", "note": "[methyl-α-glucopyranoside]", "values": [{"measurement": "binding with l-p-BPA", "setting": "[1]", "value": "complete lack of binding"}, {"measurement": "change in the 1H NMR spectrum of l-p-BPA", "setting": "[1]", "value": "no change"}]}, {"molecule": "O=CC[C@@H](O)[C@H](O)[C@H](O)CO", "note": "[2-Deoxyglucose]", "values": [{"measurement": "log Keq (complex formation constant, monosaccharides)", "setting": "[1]", "value": "< 0"}]}, {"molecule": "O=C(CO)[C@H](O)[C@@H](O)[C@H](O)CO", "note": "[Sorbose]", "values": [{"measurement": "decrease in the pKeq values of these complexes", "setting": "[1]", "value": 0.5, "unit": "pKeq"}, {"measurement": "log Keq (complex formation constant, monosaccharides)", "setting": "[1]", "value": 2.7}]}, {"molecule": "OC[C@@H](O)[C@H](O)[C@@H](O)CO", "note": "[Xylitol]", "values": [{"measurement": "log Keq (complex formation constant, polyols)", "setting": "[1]", "value": 2.5}]}, {"molecule": "O=C[C@@H](O)[C@@H](O)[C@H](O)[C@H](O)CO", "note": "[Mannose]", "values": [{"measurement": "log Keq (complex formation constant, monosaccharides)", "setting": "[1]", "value": 1.3}]}, {"molecule": "N[C@@H](Cc1ccc(B(O)O)cc1)C(=O)O", "note": "[p-BPA, p-Boronophenylalanine]", "values": [{"measurement": "p-BPA remaining in solution", "setting": "[7]; fructose, sorbose, or large excess of another carbohydrate or polyol", "value": "all of the p-BPA remains in solution"}, {"measurement": "p-BPA present as its sodium carboxylate", "setting": "[7]; remainder as free acid", "value": "approximately 90%"}, {"measurement": "uptake by melanoma cells", "setting": "melanoma cells", "value": "selectively taken up by melanoma cells"}, {"measurement": "water solubility at physiological pH", "setting": "[8]; pH 7.4, in words", "value": "poor water solubility"}, {"measurement": "solubility in water", "setting": "[8]; water", "value": 1.6, "unit": "mg/mL"}]}, {"molecule": "O=C(CO)[C@@H](O)[C@H](O)[C@H](O)CO", "note": "[Fructose]", "values": [{"measurement": "log Keq (complex formation constant, monosaccharides)", "setting": "[1]", "value": 3.2}, {"measurement": "difference in binding constants", "setting": "[1]", "value": "lack of appreciable difference in binding constants"}]}]}
